Experimental data reported in patent US8710198B2, “Caprazene as a novel compound and derivatives thereof, and caprazol as a novel compound and derivatives thereof” (Meiji Seika Pharma Co., Ltd., priority 2003, dated 2014).

Experiments:
enzyme MraY = enzyme MraY (Escherichia coli, UniProt P0A6W3); settings: statement in words
bacteria = assay: Antibacterial activity; type: cell-based; settings: statement in words
acid-fast bacteria = settings: statement in words, WO 01/12643A1 / EP 1211259A1; cited from earlier work
[1] = system: Staphylococcus aureus ATCC607; assay: Minimum growth inhibitory concentration on agar medium by serial dilution method, Table 14; type: cell-based
Description: (§1) Minimum growth inhibitory concentrations (mcg/ml) of caprazene-1′″-amide derivatives of the formula (II) against some of microorganisms were measured on an agar culture medium by a serial dilution method according to the standard method as provided by Japanese Society of Chemotherapy. For the cultivation of Mycobacterium smegmatis (one of […]), however, there was used an agar culture medium with the addition of 1% glycerine (the same applies to in the following tests).
(§2) Minimum growth inhibitory concentrations (mcg/ml) of some of the derivative of the formula (VIII) against a variety of microorganisms were measured on an agar medium by a serial dilution method according to the standard method as provided by Japanese Society of Chemotherapy.

Micrococcus luteus FDA16 = assay: Minimum growth inhibitory concentration on agar culture medium by serial dilution method (Japanese Society of Chemotherapy); type: cell-based
Description: as §1
(§3) Minimum growth inhibitory concentrations (mcg/ml) of some of the caprazene-1′″-ester derivative of the formula (III) against some of microorganisms were measured on an agar culture medium by a serial dilution method according to the standard method as provided by Japanese Society of Chemotherapy.
(§4) Minimum growth inhibitory concentrations (mcg/ml) of some of the caprazol-1′″-amide derivative of the formula (V) against a variety of microorganisms were measured on an agar medium by a serial dilution method according to the standard method as provided by Japanese Society of Chemotherapy.
as §2, with “of the caprazol-1′″-amide-3′″-ester derivative of” for “of the derivative of”, “the formula (VI) against a” for “the formula (VIII) against a”
as §2, with “of the caprazol-3′″-ester derivative or caprazol-1′″-ester-3′″-ester derivative of” for “of the derivative of”, “the formula (VII) against a” for “the formula (VIII) against a”
as §2

[2] = system: Staphylococcus aureus FDA209P; assay: as above; type: cell-based
Description: as §1, §3, §4
as §2, with “of the caprazol-1′″-amide-3′″-ester derivative of” for “of the derivative of”, “the formula (VI) against a” for “the formula (VIII) against a”
as §2, with “of the caprazol-3′″-ester derivative or caprazol-1′″-ester-3′″-ester derivative of” for “of the derivative of”, “the formula (VII) against a” for “the formula (VIII) against a”
as §2

[3] = system: Mycobacterium smegmatis ATCC607; assay: Minimum growth inhibitory concentration on agar culture medium with 1% glycerine by serial dilution method; type: cell-based; settings: agar culture medium with the addition of 1% glycerine
Description: as §1, §3, §4
as §2, with “of the caprazol-1′″-amide-3′″-ester derivative of” for “of the derivative of”, “the formula (VI) against a” for “the formula (VIII) against a”
as §2, with “of the caprazol-3′″-ester derivative or caprazol-1′″-ester-3′″-ester derivative of” for “of the derivative of”, “the formula (VII) against a” for “the formula (VIII) against a”

Chain of enzyme MraY (P0A6W3 whole entry): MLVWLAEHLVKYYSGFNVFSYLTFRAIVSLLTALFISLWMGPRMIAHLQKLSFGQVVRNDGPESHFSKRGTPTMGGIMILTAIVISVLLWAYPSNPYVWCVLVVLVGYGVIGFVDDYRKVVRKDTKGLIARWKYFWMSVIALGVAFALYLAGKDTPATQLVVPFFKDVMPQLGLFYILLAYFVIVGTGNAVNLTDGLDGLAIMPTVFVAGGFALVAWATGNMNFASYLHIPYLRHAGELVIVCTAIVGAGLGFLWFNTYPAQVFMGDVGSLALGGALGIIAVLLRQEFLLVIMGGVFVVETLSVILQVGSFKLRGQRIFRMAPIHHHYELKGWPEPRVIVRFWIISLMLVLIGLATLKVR

Compound | inhibitory activity against enzyme MraY (enzyme MraY) | antibacterial activity (bacteria) | antibacterial activities against acid-fast bacteria (acid-fast bacteria) | Minimum growth inhibitory concentration (mcg/ml) against bacteria Staphylococcus aureus ATCC607 [1] [µg/mL] | Minimum growth inhibitory concentration (mcg/ml) against bacteria Micrococcus luteus FDA16 (Micrococcus luteus FDA16) [µg/mL] | Minimum growth inhibitory concentration (mcg/ml) against bacteria Staphylococcus aureus FDA209P [2] [µg/mL] | Minimum growth inhibitory concentration (mcg/ml) against bacteria Mycobacterium smegmatis ATCC607 [3] [µg/mL]
CN1C(=O)[C@H](C(O[C@@H]2O[C@H](CN)[C@@H](O)[C@H]2O)[C@H]2O[C@@H](n3ccc(=O)[nH]c3=O)[C@H](O)[C@@H]2O)N(C)CC=C1C(=O)O (stereo partly drawn) [Caprazene, caprazene] | inhibitory activity against enzyme MraY | no antibacterial activity |  |  |  |  | 
CN1C[C@H](O)[C@@H](C(=O)O)N(C)C(=O)[C@@H]1[C@H](O[C@@H]1O[C@H](CN)[C@@H](O)[C@H]1O)[C@H]1O[C@@H](n2ccc(=O)[nH]c2=O)[C@H](O)[C@@H]1O [caprazol] | inhibitory activity against enzyme MraY | no antibacterial activity |  |  |  |  | 
CO[C@H]1[C@@H](OC)[C@H](OC(=O)C[C@@H](C)CC(=O)O[C@@H](CCCCCCCCC(C)C)CC(=O)O[C@H]2CN(C)[C@@H](C(O[C@@H]3O[C@H](CN)[C@@H](O)[C@H]3O)[C@H]3O[C@@H](n4ccc(=O)[nH]c4=O)[C@H](O)[C@@H]3O)C(=O)N(C)[C@@H]2C(=O)O)O[C@H](C)[C@H]1OC (stereo partly drawn) [caprazamycin F] |  |  | high antibacterial activities |  |  |  | 
caprazamycin B |  |  | high antibacterial activities |  |  |  | 
CCCCCCCCCCC[C@@H](CC(=O)O[C@H]1CN(C)[C@@H](C(O[C@@H]2O[C@H](CN)[C@@H](O)[C@H]2O)[C@H]2O[C@@H](n3ccc(=O)[nH]c3=O)[C@H](O)[C@@H]2O)C(=O)N(C)[C@@H]1C(=O)O)OC(=O)C[C@H](C)CC(=O)O[C@@H]1O[C@H](C)[C@@H](OC)[C@@H](OC)[C@H]1OC (stereo partly drawn) [caprazamycin E] |  |  | high antibacterial activities |  |  |  | 
CCCCCCCCCCCCC[C@@H](CC(=O)O[C@H]1CN(C)[C@@H](C(O[C@@H]2O[C@H](CN)[C@@H](O)[C@H]2O)[C@H]2O[C@@H](n3ccc(=O)[nH]c3=O)[C@H](O)[C@@H]2O)C(=O)N(C)[C@@H]1C(=O)O)OC(=O)C[C@H](C)CC(=O)O[C@@H]1O[C@H](C)[C@@H](OC)[C@@H](OC)[C@H]1OC (stereo partly drawn) [caprazamycin A] |  |  | high antibacterial activities |  |  |  | 
CCCCCCCCCCN1C(=O)C(C(O)CN(C)C(C(=O)NC)C(OC2OC(CN)C(O)C2O)C2OC(n3ccc(=O)[nH]c3=O)C(O)C2O)N(C)C1=O (stereo not drawn) [Compound VIII-E] |  |  |  | 6.25 | 6.25 | 25 | 
CCCCCCCCCCCN1C(=O)C(C(O)CN(C)C(C(=O)NC)C(OC2OC(CN)C(O)C2O)C2OC(n3ccc(=O)[nH]c3=O)C(O)C2O)N(C)C1=O (stereo not drawn) [Compound VIII-F] |  |  |  | 6.25 | 6.25 | 25 | 
CCCCCCCCCCCC[C@@H](CC(=O)O[C@H]1CN(C)[C@@H]([C@H](O[C@@H]2O[C@H](CN)[C@@H](O)[C@H]2O)[C@H]2O[C@@H](n3ccc(=O)[nH]c3=O)[C@H](O)[C@@H]2O)C(=O)N(C)[C@@H]1C(=O)O)OC(=O)C[C@H](C)CC(=O)O[C@@H]1O[C@@H](C)C(OC)[C@@H](OC)[C@H]1OC (stereo partly drawn) [caprazamycin C] |  |  | high antibacterial activities |  |  |  | 
CCCCCCCCCCCCCOC(=O)C1=CCN(C)C(C(OC2OC(CN)C(O)C2O)C2OC(n3ccc(=O)[nH]c3=O)C(O)C2O)C(=O)N1C (stereo not drawn) [Compound III-BB] |  |  |  |  | 3.13 | 3.13 | 12.5
CN1C(=O)C(C(OC2OC(CN)C(O)C2O)C2OC(n3ccc(=O)[nH]c3=O)C(O)C2O)N(C)CC=C1C(=O)NC1CCCCCCCCCCC1 (stereo not drawn) [Compound II-Q] |  |  |  |  | 0.20 | 100 | 3.13
CCCCCCNC(=O)C1C(O)CN(C)C(C(OC2OC(CN)C(O)C2O)C2OC(n3ccc(=O)[nH]c3=O)C(O)C2O)C(=O)N1C (stereo not drawn) [Compound V-A] |  |  |  |  | 50 | 50 | 12.5
CCCCCCCCCCC(=O)OC1CN(C)C(C(OC2OC(CN)C(O)C2O)C2OC(n3ccc(=O)[nH]c3=O)C(O)C2O)C(=O)N(C)C1C(=O)O (stereo not drawn) [Compound VII-E] |  |  |  |  | 1.56 | 1.56 | 0.39
CCCCCCCCC=CCCCCCCCC(=O)OC1CN(C)C(C(OC2OC(CN)C(O)C2O)C2OC(n3ccc(=O)[nH]c3=O)C(O)C2O)C(=O)N(C)C1C(=O)O (stereo not drawn) [Compound VII-R] |  |  |  |  | 3.13 | 1.56 | 6.25
CCCCCCCCCCCCCCNC(=O)C1=CCN(C)C(C(OC2OC(CN)C(O)C2O)C2OC(n3ccc(=O)[nH]c3=O)C(O)C2O)C(=O)N1C (stereo not drawn) [Compound II-I] |  |  |  |  | 0.78 | 3.13 | 0.78
CCCCCCC(=O)OC1CN(C)C(C(OC2OC(CN)C(O)C2O)C2OC(n3ccc(=O)[nH]c3=O)C(O)C2O)C(=O)N(C)C1C(=O)O (stereo not drawn) [Compound VII-A] |  |  |  |  | >50 | 25 | 1.56
CCCCCCCCCCCCCc1ccc(NC(=O)C2=CCN(C)C(C(OC3OC(CN)C(O)C3O)C3OC(n4ccc(=O)[nH]c4=O)C(O)C3O)C(=O)N2C)cc1 (stereo not drawn) [Compound II-13] |  |  |  |  | 1.56 | 3.13 | 12.5
CCCCCCCCCCCCN1C(=O)C(C(O)CN(C)C(C(=O)NC)C(OC2OC(CN)C(O)C2O)C2OC(n3ccc(=O)[nH]c3=O)C(O)C2O)N(C)C1=O (stereo not drawn) [Compound VIII-G] |  |  |  | 12.5 | 6.25 | 25 | 
CCCCCCCc1ccc(NC(=O)C2=CCN(C)C(C(OC3OC(CN)C(O)C3O)C3OC(n4ccc(=O)[nH]c4=O)C(O)C3O)C(=O)N2C)cc1 (stereo not drawn) [Compound II-7] |  |  |  |  | <0.20 | 1.56 | <0.20
CCCCCCCCCCCCCCCCCCCCCNC(=O)C1=CCN(C)C(C(OC2OC(CN)C(O)C2O)C2OC(n3ccc(=O)[nH]c3=O)C(O)C2O)C(=O)N1C (stereo not drawn) [Compound II-P] |  |  |  |  | 3.13 | 6.25 | 50
CCCCCCCCCCCCc1ccc(NC(=O)C2=CCN(C)C(C(OC3OC(CN)C(O)C3O)C3OC(n4ccc(=O)[nH]c4=O)C(O)C3O)C(=O)N2C)cc1 (stereo not drawn) [Compound II-12] |  |  |  |  | 0.78 | 3.13 | 6.25
CCCCCCCCCCCCNC(=O)C1C(O)CN(C)C(C(OC2OC(CN)C(O)C2O)C2OC(n3ccc(=O)[nH]c3=O)C(O)C2O)C(=O)N1C (stereo not drawn) [Compound V-G, caprazol-1′″-dodecyl-amide derivative] |  |  |  |  | 25 | 12.5 | 6.25
CCCCCCCNC(=O)C1=CCN(C)C(C(OC2OC(CN)C(O)C2O)C2OC(n3ccc(=O)[nH]c3=O)C(O)C2O)C(=O)N1C (stereo not drawn) [Compound II-B] |  |  |  |  | 1.56 | 25 | 25
